Measurements published in the NIST ThermoML archive (doi:10.1016/j.jct.2015.10.002).

Assay: mn = molality of the nth substance listed, in mol/kg
Details: 101.3 kPa, Liquid; for viscosity: Capillary tube (Ostwald / Ubbelohde) method; for mass density: Vibrating tube method

OC[C@@H](O)[C@@H](O)[C@H](O)[C@@H](O)CO [D-sorbitol] + O
Details	mass density, m1 = 0.2 [kg/m3]	mass density, m1 = 0.4 [kg/m3]	mass density, m1 = 0.6 [kg/m3]	mass density, m1 = 0.8 [kg/m3]	mass density, m1 = 1 [kg/m3]	viscosity, m1 = 0.2 [mPa·s]	viscosity, m1 = 0.4 [mPa·s]	viscosity, m1 = 0.6 [mPa·s]	viscosity, m1 = 0.8 [mPa·s]	viscosity, m1 = 1 [mPa·s]
293.15 K	1010.61	1022.43	1033.64	1044.32	1054.54	1.099	1.203	1.319	1.453	1.592
303.15 K	1007.87	1019.5	1030.53	1041.07	1051.08	0.87	0.944	1.034	1.122	1.233
313.15 K	1004.3	1015.77	1026.67	1037.06	1046.99	0.708	0.766	0.829	0.903	0.977
323.15 K	999.96	1011.33	1022.12	1032.4	1042.26	0.588	0.634	0.686	0.738	0.797
